Reference: patent US4614827A, “Method for isolating vinyl salt compounds from aqueous solutions” (Rohm GmbH, priority 1983, dated 1986)

experiment: Water solubility at 20° C.
Source text: Of special interest are the salts of acrylic and methacrylic acid and also of maleic acid, fumaric acid, and itaconic acid, and more particularly the alkali metal salts, and especially the sodium, potassium, and lithium salts; the alkaline earth metal salts, and especially the magnesium, calcium, strontium, and barium salts; the salts of subgroups I and II of the periodic table, and especially the copper and zinc salts; the salts of main and subgroup IV (Ge, Sn, Pb, Ti, Zr, Hf), and especially the germanium, tin, lead, titanium, and zirconium salts; the salts of subgroup VIII (Fe, Ru, Os, Co, Rh, Ir, Ni, Pd, Pt), and especially the iron, cobalt, and nickel salts; the salts of main and subgroups V ((As, Sb, Bi, V, Nb, Ta) and of subgroup VII (Mn, Tc, Re), and especially the antimony, bismuth, vanadium, and manganese salts; and the ammonium salts, including those derived from ammonium cations of the formula [drawing 1] wherein R1 and R2 are hydrogen or an alkyl group having from 1 to 18 carbon atoms, and preferably from 1 to 5 carbon atoms, and R3 and R4 are hydrogen or an alkyl group having from 1 to 18 carbon atoms, and preferably from 1 to 6 carbon atoms, or wherein R3 and R4, optionally with inclusion of one or two further hetero atoms such as nitrogen, oxygen, or sulfur, form a five- or six-membered heterocyclic system.

Going from `C=C(C)C(=O)[O-].[K+]` [Potassium methacrylate] to `C=C(C)C(=O)[O-].[Li+]` [Lithium methacrylate], the “Water solubility at 20° C.” value falls from 101.8 g/salt/100 g water to 87.5 g/salt/100 g water.

First: C=C(C)C(=O)O [Barium dimethacrylate]
Second: C=C(C)C(=O)[O-].[Na+] [Sodium methacrylate]
The “Water solubility at 20° C.” value of the first is lower: 40.5 g/salt/100 g water for the first, 95.3 g/salt/100 g water for the second.

For `C=C(C)C(=O)O` [Strontium dimethacrylate], the “Water solubility at 20° C.” value was 27.5 g/salt/100 g water.

experiment: Water solubility of spray dried product (qualitative); format: physicochemical
Source text: Clear beads, some of them vitrified, were obtained. The major portion of these ranged in size from 10 to 20 microns; the largest particles were about 80 microns. The residual moisture of the spray dried material ranged from 0.35 to 0.55 percent and the bulk density from 540 to 600 grams/liter. Higher bulk densities can be obtained by increasing the operating temperature. Because of the good water solubility of the products being dried, the spray drying apparatus can be cleaned quite easily.
Clear beads in the range of 10 to 100 microns are obtained. The residual moisture of the spray dried material is less than 0.3%.

In the case of `C=C(C)C(=O)[O-].[Na+]` [Sodium methacrylate], the “water solubility (in words)” value is reported as “readily water soluble”.
